From patent US20220287995A1, “COMPOSITIONS AND METHODS FOR INHIBITING BACTERIAL VIRULENCE AND FLIM-BASED DEVICE AND METHOD FOR ANTIBIOTIC SUSCEPTIBILITY TESTING” (THE REGENTS OF THE UNIVERSITY OF CALIFORNIA, priority 2019, published 2022)
“Also recorded” adds a separate entry of the source.

Key:
[1] = system: surface-attached P. aeruginosa; assay: Image-based virulence (host killing) assay with amoeba host cells and calcein-AM; assay type: cell-based, Pseudomonas aeruginosa; conditions: for host-killing activity (host killing index): surface-attached wild-type P. aeruginosa in rich (PS:DB) medium, supplemented at 3 hours at 0.2%, assessed after 6 hours of growth, amoeba host cells
Method: P. aeruginosa cells were assayed using an image-based virulence assay as described previously (12, 50). P. aeruginosa strains were cultured in PS:DB, diluted 1:100 into 60×15 mm plastic petri dishes (Corning, Corning, N.Y.), cultured for 4 to 6 hours by shaking at 100 rpm, and harvested. Planktonic cells were assayed by transferring 10 μL of culture from the petri dish to a new petri dish, mixing with an equal volume of D. discoideum that were grown to an OD600 of 0.2-0.5, and immobilizing by placing an agar pad on top of the mixture (FIG. 11C). Agar pads were made using Bacto agar at a concentration of 1%, DB buffer, and 1 μM calcein acetoxymethyl (AM) ester (Molecular Probes, Eugene, Oreg.), and were cut into 1.5×1.5 cm squares (12, 50). Surface-attached cells were assayed by aspirating planktonic cells from the culture, washing with DB buffer to remove planktonic cells, mixing with an equal volume of D. discoideum, and immobilizing by placing an agar pad on top of the mixture (FIG. 11C) (50). The immobilized planktonic or surface-attached P. aeruginosa and D. discoideum were incubated at room temperature for 1 hour and imaged using fluorescence microscopy. The host killing index (12, 50) was computed as the average ratio of calcein-AM fluorescence to cell area in individual amoeba cells for 30 to 200 cells in each experiment.
Fluorescence microscopy to assess calcein-AM fluorescence was performed using a Nikon Eclipse Ti-E microscope (Nikon, Melville, N.Y.) containing Nikon 10× Plan Fluor Ph1 (0.3 NA) and 20×S Plan Fluor Nikon (0.45 NA) objectives, a Sola light engine (Lumencor, Beaverton, Oreg.), an LED-DA/FI/TX filter set (Semrock, Rochester, N.Y.) containing a 409/493/596 dichroic and 474/27 nm and 525/45 nm filters for excitation and emission, respectively, and a Hamamatsu Orca Flash 4.0 V2 camera (Hamamatsu, Bridgewater, N.J.). Images were acquired using Nikon NIS-Elements and analyzed using custom built software written previously (12) in Matlab (Mathworks, Natick, Mass.).
For experiments in which strains cultured in PS:DB were supplemented with individual carbon sources (FIG. 5A-D), pyruvic acid, citric acid, […], glycerol, or glucose was added to cultures at a final concentration of 0.2% at 3 hours following a 1:100 dilution from an overnight culture. Cultures were harvested after 1 additional hour of growth for measurements of fluorescence lifetime and NADH and NAD^+ concentrations. For experiments in which surface-attached strains that were cultured in PS:DB media were treated with antimycin A (FIG. 5E-F), 10 μM antimycin A dissolved in 0.1% ethanol, 0.1% ethanol, alone, or 10 μM antimycin A dissolved in 0.1% ethanol and 0.2% citric acid were added after 3 hours of growth following a 1:100 dilution from an overnight culture. Host killing was measured after an additional 1 to 3 hours of growth (total of 4 to 6 hours of growth).

P. aeruginosa = assay: Fluorescence lifetime imaging microscopy (FLIM) phasor g-values of P. aeruginosa; assay type: cell-based, Pseudomonas aeruginosa; conditions: for enzyme-bound NADH pool: surface-attached P. aeruginosa treated with carbon source; for fluorescence lifetime g-value / change in FLIM g-value: surface-attached; for fluorescence lifetime g-value: modified minimal medium, single carbon source at 0.2%; for change in FLIM g-value: rich (PS:DB) medium, carbon source 0.2% added at 3 hours, harvested after 1 additional hour
Method: Fluorescence lifetime measurements were performed using a custom-built multiphoton microscope setup based on an Olympus FV1000 system and an Olympus IX81 microscope (Olympus, Waltham, Mass.) as described previously (68). The FLIM microscope uses an 80 MHz ultrafast Ti:Sapphire Mai Tai laser (Spectra-physics, Santa Clara, Calif.) set at 740 nm for mulitphoton excitation. The setup used a 690-nm SP dichroic-460/80 nm filter pair for separating emission and a PlanApo N Olympus oil immersion 60× (1.42 NA) objective (Olympus, Waltham, Mass.), which is capable of bacterial single-cell resolution imaging. An H7422P-40 photomultiplier tube module (Hamamatsu, Bridgewater, N.J.) and A320 FastFLIM Box (ISS, Champaign, Ill.) were used to measure fluorescence lifetime. Image acquisition was controlled by SimFCS software version 4 (64-bit) (Laboratory for Fluorescence Dynamics, Irvine, Calif.). Planktonic and surface-attached cells were isolated by modifying a protocol described previously (12, 50) (FIG. 11A).
Masks for bacterial cells were created through SimFCS using fluorescence intensity images and image intensity thresholding (FIG. 11B). Fluorescence lifetimes within the masked areas were transformed using
The microscope was calibrated before each session by setting the fluorescence lifetime obtained for 10 μM rhodamine 110 (Sigma, St. Louis, Mo.) to 4.0 ns. The laser power was set to 20% (<3 mW at back aperture of the microscope) using an acousto-optic modulator (AA Opto Electronic, Orsay, France). Sub-cellular fluorescence lifetimes (FIG. 1A) were collected using the 20× digital zoom mode at a rate of 1.7 sec/frame. All other P. aeruginosa measurements were performed using the 6× digital zoom mode using the same frame rate. For all measurements, 40 sequential frames were acquired to generate a single FLIM image.
P. aeruginosa strains were cultured overnight in PS:DB, diluted 1:100 into 35 mm glass-bottom dishes (MatTek Corporation, Ashland, Mass.) containing the same medium, and cultured for 4 to 6 hours (FIGS. 2E-F, 4A, 5A, and 8C). Alternatively, strains were cultured overnight in minimal medium A, diluted 1:100 into modified minimal media A with single carbon sources in culture tubes (FIGS. 6D-E and 7A-B, D) or glass-bottom dishes and cultured to an OD600 of 0.2 (FIG. 2E-F).
Planktonic cells were transferred to a new glass-bottom dish, immobilized using an agar pad, and imaged immediately (FIG. 11A). Agar pads were made using 1% Bacto agar (BD, Franklin Lakes, N.J.) and DB buffer (1, 2) or modified minimal medium A containing no carbon source for strains that were cultured in PS:DB or modified minimal medium, respectively, and were cut into 1.5×1.5 cm squares. Surface-attached cells were isolated by aspirating the supernatant from the dish, washing the dish to remove planktonic cells with DB buffer or modified minimal medium with no carbon source for strains cultured in PS:DB or modified minimal medium, respectively, and placing an agar pad on the dish surface, and were imaged immediately. Imaging was performed at room temperature.
For experiments involving FLIM measurements of the effects of antimycin A (FIG. 7D), P. aeruginosa were grown in culture tubes to saturation in modified minimal medium A containing 0.2% citrate, diluted 1:100 into the same medium in culture tubes, supplemented with 10 μM antimycin A (Sigma, St. Louis, Mo.) with 0.1% ethanol or with 0.1% ethanol, cultured to an OD600 of 0.2, and immediately measured for fluorescence lifetime. Fluorescence lifetimes for pyocyanin and pyoverdine (FIG. 7C) were measured using solutions of 6.2 mM pyocyanin (P0046, Sigma, St. Louis, Mo.) in DMSO and 5 mg/mL pyoverdine (P8124, Sigma, St. Louis, Mo.) in deionized water, respectively. For FIG. 6D, cells with fluorescence intensities below a value of 1.0, as reported by the SimFCS software, were excluded from the analysis. […]

Compound | host-killing activity (host killing index) [1] | enzyme-bound NADH pool (P. aeruginosa) | fluorescence lifetime g-value (P. aeruginosa) | change in FLIM g-value (P. aeruginosa) | effect on the earlier virulence induction by antimycin A ([1]; co-treatment at 3 hours with 0.2% citrate and 10 μM antimycin A in 0.1% ethanol, surface-attached)
OCC(O)CO [glycerol] | no effect on host-killing activity | relatively small impacts | increasing g-values | smallest changes | 
O=C(O)CC(O)(CC(=O)O)C(=O)O [citrate] | inhibited virulence; also recorded: abolished host-killing activity | decreased | increasing g-values | greatest increases | inhibited
